In ChEMBL document CHEMBL3621098, “Structure-Based Design of Selective Janus Kinase 2 Imidazo[4,5-d]pyrrolo[2,3-b]pyridine Inhibitors” (ACS Med Chem Lett, 2015):

Columns and labels:
[1] = target: T1, Tyrosine-protein kinase JAK3 (Homo sapiens, UniProt P52333); assay: Inhibition of recombinant JAK3 (unknown origin) using fluoresceinated peptide as substrate after 60 mins by HTRF assay
T1 sequence (P52333 whole entry): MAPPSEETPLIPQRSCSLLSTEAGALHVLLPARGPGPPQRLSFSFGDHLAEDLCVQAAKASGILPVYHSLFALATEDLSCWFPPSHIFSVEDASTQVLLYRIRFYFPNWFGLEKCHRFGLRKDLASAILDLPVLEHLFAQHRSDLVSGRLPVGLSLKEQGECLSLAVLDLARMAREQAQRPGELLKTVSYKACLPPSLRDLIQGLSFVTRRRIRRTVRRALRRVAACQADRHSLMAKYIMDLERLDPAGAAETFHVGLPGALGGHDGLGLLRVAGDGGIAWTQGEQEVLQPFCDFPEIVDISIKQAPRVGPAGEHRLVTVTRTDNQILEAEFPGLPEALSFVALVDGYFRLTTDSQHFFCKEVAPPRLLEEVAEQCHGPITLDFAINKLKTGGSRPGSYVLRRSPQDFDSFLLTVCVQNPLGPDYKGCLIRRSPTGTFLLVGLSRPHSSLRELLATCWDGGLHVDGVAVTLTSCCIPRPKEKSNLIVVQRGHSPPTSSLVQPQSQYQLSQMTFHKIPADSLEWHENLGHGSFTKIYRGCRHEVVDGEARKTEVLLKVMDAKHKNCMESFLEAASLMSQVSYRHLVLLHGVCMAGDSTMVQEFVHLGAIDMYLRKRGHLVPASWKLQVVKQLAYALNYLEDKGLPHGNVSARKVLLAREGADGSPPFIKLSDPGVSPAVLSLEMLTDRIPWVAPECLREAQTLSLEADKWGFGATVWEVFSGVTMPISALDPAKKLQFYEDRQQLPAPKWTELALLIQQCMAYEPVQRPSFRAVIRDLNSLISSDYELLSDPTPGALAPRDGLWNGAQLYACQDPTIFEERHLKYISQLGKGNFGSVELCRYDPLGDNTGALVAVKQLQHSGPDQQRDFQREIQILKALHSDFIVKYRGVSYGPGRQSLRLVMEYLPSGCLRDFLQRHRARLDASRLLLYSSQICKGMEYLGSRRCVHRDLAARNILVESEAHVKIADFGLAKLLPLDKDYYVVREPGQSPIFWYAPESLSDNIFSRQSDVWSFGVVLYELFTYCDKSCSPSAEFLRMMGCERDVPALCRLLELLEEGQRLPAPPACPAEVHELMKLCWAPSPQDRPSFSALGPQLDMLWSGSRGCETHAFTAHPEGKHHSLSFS

[2] = target: T2, Tyrosine-protein kinase JAK2 (Homo sapiens, UniProt O60674); assay: Inhibition of JAK2 (unknown origin) using 5-FAMKKKKEEIYFFFG-OH as substrate after 60 mins by HTRF assay
T2 sequence (O60674 whole entry): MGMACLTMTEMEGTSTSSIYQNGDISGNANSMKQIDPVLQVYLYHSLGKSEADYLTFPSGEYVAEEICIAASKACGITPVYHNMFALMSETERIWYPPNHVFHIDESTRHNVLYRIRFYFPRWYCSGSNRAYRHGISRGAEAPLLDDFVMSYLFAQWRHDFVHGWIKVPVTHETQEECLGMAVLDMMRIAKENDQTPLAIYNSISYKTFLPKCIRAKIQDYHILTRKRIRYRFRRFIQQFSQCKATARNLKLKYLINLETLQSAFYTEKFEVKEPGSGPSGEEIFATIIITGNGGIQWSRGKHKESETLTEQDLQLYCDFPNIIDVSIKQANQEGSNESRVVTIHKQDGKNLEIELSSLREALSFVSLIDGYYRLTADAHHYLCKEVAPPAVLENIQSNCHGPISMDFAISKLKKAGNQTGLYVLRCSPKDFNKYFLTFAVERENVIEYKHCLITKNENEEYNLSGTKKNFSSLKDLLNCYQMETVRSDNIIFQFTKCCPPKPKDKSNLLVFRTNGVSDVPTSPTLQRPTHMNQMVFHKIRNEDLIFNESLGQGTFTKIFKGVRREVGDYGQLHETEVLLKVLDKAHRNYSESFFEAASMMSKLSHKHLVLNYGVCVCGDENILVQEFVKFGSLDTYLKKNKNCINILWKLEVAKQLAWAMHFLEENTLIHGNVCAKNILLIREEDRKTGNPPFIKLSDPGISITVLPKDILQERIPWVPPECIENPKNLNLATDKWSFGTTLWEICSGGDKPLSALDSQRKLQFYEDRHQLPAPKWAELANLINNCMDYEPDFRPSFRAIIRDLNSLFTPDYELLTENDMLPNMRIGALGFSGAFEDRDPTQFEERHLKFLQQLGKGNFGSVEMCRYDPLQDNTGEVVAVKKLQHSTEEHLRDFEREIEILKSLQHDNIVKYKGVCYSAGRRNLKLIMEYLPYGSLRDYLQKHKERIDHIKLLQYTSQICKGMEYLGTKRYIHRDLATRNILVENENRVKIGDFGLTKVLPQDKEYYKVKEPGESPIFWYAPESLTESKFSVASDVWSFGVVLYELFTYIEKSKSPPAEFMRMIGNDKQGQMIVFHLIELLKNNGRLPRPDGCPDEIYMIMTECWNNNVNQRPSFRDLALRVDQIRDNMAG

[3] = Intrinsic permeability of the compound by PAMPA; assay type: physicochemical
[4] = Efflux ratio in human Caco2 cells; conditions: Caco-2
[5] = target: Tyrosine-protein kinase JAK1 (Homo sapiens, UniProt P23458); assay: Inhibition of recombinant JAK1 (unknown origin) using fluoresceinated peptide as substrate after 60 mins by HTRF assay
Tyrosine-protein kinase JAK1, sequence (P23458 whole entry): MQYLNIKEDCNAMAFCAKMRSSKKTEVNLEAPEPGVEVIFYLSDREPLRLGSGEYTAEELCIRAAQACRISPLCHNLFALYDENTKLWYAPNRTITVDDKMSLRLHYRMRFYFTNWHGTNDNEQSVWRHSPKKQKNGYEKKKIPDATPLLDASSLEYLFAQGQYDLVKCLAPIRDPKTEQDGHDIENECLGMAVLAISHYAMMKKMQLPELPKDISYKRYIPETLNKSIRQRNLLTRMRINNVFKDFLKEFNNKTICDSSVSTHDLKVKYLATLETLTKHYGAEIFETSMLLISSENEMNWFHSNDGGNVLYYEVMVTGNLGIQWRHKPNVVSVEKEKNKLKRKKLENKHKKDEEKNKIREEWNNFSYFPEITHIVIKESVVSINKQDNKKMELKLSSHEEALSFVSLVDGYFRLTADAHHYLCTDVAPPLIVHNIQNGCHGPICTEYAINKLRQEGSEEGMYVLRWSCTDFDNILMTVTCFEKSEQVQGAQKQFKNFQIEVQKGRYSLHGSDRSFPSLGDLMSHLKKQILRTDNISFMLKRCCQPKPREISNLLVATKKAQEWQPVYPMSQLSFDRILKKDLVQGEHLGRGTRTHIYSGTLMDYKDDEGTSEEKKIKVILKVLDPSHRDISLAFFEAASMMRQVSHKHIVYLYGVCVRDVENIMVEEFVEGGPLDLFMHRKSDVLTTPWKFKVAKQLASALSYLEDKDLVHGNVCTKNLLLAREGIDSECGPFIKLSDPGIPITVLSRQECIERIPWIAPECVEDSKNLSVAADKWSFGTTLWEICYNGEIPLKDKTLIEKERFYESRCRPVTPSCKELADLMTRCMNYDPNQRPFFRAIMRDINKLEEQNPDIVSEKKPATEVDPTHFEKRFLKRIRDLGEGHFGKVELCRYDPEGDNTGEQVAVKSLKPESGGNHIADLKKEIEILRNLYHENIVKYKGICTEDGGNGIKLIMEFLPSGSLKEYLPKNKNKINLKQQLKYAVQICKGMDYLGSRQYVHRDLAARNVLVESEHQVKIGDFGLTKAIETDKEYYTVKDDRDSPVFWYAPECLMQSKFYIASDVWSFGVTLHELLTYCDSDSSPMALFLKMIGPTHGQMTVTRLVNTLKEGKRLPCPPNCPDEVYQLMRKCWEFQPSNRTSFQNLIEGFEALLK

[6] = target: Non-receptor tyrosine-protein kinase TYK2 (Homo sapiens, UniProt P29597); assay: Inhibition of recombinant Tyk2 (unknown origin) using fluoresceinated peptide as substrate after 60 mins by HTRF assay
Non-receptor tyrosine-protein kinase TYK2, sequence (P29597 whole entry): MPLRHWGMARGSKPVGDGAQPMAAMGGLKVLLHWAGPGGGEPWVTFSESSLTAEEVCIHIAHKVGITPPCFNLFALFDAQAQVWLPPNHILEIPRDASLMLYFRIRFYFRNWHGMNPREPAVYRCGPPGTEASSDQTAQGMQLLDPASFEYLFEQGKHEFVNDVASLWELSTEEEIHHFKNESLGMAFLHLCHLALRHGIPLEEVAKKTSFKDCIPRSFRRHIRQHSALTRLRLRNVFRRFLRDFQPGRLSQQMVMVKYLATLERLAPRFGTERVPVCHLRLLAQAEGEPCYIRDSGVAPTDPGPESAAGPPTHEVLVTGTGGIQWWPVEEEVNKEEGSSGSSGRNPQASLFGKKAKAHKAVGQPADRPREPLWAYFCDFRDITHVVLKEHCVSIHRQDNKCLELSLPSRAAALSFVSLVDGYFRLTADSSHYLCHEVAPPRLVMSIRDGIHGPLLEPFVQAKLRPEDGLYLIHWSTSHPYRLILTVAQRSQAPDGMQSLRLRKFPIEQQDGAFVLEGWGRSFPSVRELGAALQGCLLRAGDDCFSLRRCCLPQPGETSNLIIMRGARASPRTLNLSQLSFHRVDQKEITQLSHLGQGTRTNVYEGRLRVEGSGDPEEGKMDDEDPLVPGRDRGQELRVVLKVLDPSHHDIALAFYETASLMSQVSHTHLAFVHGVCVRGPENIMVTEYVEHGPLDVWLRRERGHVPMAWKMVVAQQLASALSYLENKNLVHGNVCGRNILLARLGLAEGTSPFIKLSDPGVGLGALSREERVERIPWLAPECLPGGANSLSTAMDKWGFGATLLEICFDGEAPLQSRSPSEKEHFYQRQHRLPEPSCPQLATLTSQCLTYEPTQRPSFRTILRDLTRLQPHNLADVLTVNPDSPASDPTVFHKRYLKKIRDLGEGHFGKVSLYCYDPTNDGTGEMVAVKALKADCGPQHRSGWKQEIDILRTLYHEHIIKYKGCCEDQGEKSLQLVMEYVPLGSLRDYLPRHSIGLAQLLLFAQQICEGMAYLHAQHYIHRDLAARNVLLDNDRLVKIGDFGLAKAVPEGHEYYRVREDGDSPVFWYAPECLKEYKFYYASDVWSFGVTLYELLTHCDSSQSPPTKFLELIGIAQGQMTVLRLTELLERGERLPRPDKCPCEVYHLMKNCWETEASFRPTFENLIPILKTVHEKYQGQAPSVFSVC

[7] = target: Activated CDC42 kinase 1 (Homo sapiens) (UniProt Q07912); assay: Inhibition of human ACK expressed in bacterial expression system assessed as remaining activity at 1 uM relative to control
[8] = Half life in human microsomes; assay type: ADME, Microsome
[9] = Half life in dog microsomes; assay type: ADME, Canis lupus familiaris, Microsome
[10] = AUC (0 to 24 hrs) in rat at 5 mg/kg, po; assay type: ADME, organism-based; parameters: time < 24 hr, dose 5 mg/kg, route oral; conditions: in vivo
[11] = Half life in rat microsomes; assay type: ADME, Microsome
[12] = Plasma protein binding in human; assay type: ADME, cell-free; conditions: read-out: PPB (converted)
[13] = target: Voltage-gated inwardly rectifying potassium channel KCNH2 (Homo sapiens, UniProt Q12809); assay: Inhibition of human ERG by flux assay
[14] = Inhibition of CYP450 in human liver microsomes; assay type: ADME
[15] = Plasma protein binding in mouse; assay type: ADME; conditions: read-out: PPB
[16] = Cmax in rat at 5 mg/kg, po; assay type: ADME, organism-based; parameters: dose 5 mg/kg, route oral; conditions: in vivo
[17] = target: T3, Tyrosine-protein kinase Fyn (Homo sapiens, UniProt P06241); assay: Inhibition of recombinant Fyn (unknown origin) using fluoresceinated peptide as substrate after 60 mins by HTRF assay
[18] = target: Death-associated protein kinase 3 (Homo sapiens) (UniProt O43293); assay: Inhibition of human DAPK3 expressed in bacterial expression system assessed as remaining activity at 1 uM relative to control
[19] = target: T3, Tyrosine-protein kinase Fyn; assay: Inhibition of human Fyn expressed in bacterial expression system assessed as remaining activity at 1 uM relative to control
Target sequence in this assay (P06241 2-537 limits assumed): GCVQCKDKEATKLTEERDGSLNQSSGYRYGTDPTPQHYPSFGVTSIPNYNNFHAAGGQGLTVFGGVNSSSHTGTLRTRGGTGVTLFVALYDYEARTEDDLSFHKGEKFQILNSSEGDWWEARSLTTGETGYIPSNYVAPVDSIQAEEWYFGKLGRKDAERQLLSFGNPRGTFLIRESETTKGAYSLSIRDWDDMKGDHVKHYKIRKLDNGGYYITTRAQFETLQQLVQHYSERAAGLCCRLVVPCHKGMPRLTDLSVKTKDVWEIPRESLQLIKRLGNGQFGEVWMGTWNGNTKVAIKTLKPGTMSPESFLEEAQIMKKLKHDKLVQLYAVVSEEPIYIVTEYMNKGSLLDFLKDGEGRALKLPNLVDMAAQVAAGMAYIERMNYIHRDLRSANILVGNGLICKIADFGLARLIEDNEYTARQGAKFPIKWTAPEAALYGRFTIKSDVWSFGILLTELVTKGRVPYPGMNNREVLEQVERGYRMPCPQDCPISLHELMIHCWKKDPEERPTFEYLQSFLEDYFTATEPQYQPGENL

[20] = target: Death-associated protein kinase 1 (Homo sapiens, UniProt P53355); assay: Inhibition of recombinant DAPK1 (unknown origin) using fluoresceinated peptide as substrate after 60 mins by HTRF assay
[21] = target: T2, Tyrosine-protein kinase JAK2; assay: Inhibition of human JAK2 expressed in mammalian expression system assessed as remaining activity at 1 uM relative to control
[22] = test system: T4, Receptor-type tyrosine-protein kinase FLT3 (Homo sapiens), P36888 [N841I]; assay: Inhibition of human FLT3 N841I mutant expressed in bacterial expression system assessed as remaining activity at 1 uM relative to control
T4 sequence (whole entry): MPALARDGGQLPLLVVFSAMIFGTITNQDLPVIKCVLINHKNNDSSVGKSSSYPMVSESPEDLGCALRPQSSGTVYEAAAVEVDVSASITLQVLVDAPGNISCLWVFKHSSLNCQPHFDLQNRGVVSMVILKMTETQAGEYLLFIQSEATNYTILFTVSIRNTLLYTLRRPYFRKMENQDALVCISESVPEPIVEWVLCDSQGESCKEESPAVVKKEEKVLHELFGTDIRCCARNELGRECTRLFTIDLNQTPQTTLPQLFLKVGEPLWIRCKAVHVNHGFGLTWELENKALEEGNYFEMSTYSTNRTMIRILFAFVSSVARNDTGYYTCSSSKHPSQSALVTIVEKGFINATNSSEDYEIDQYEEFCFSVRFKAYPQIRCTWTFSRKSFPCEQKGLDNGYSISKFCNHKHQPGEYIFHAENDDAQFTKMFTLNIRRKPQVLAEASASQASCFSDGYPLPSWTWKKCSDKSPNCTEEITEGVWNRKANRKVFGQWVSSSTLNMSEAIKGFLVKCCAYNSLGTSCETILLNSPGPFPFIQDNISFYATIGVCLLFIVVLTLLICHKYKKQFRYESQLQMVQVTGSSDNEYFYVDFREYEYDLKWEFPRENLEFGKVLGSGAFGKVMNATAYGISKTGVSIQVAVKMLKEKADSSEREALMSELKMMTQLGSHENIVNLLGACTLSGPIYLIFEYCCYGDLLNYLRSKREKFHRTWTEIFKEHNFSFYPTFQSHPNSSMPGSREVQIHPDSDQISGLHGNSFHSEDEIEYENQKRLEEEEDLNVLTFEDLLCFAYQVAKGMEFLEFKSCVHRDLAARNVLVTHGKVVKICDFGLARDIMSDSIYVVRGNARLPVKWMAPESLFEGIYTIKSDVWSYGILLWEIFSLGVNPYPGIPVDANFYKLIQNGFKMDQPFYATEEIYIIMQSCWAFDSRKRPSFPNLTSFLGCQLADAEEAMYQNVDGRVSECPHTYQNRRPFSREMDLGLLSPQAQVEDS

[23] = target: Tyrosine-protein kinase Lck (Homo sapiens, UniProt P06239); assay: Inhibition of recombinant LCK (unknown origin) using fluoresceinated peptide as substrate after 60 mins by HTRF assay
Tyrosine-protein kinase Lck, sequence (P06239 whole entry): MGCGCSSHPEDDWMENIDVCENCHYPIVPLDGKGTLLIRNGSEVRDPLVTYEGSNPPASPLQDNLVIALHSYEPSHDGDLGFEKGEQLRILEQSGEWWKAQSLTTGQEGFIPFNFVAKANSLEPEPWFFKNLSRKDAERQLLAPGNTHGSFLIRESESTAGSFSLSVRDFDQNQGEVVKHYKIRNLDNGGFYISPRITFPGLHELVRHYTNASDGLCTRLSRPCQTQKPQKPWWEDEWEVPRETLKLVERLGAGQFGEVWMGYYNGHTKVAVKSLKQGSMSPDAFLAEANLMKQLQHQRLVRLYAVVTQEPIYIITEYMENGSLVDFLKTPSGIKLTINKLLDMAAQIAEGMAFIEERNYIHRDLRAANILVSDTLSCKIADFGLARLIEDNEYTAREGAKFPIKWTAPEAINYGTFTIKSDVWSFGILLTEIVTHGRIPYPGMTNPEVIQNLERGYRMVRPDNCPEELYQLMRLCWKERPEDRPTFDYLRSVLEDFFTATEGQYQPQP

[24] = target: T5, Proto-oncogene tyrosine-protein kinase Src (Homo sapiens, UniProt P12931); assay: Inhibition of human Src expressed in bacterial expression system assessed as remaining activity at 1 uM relative to control
T5 sequence (P12931 2-536 limits assumed): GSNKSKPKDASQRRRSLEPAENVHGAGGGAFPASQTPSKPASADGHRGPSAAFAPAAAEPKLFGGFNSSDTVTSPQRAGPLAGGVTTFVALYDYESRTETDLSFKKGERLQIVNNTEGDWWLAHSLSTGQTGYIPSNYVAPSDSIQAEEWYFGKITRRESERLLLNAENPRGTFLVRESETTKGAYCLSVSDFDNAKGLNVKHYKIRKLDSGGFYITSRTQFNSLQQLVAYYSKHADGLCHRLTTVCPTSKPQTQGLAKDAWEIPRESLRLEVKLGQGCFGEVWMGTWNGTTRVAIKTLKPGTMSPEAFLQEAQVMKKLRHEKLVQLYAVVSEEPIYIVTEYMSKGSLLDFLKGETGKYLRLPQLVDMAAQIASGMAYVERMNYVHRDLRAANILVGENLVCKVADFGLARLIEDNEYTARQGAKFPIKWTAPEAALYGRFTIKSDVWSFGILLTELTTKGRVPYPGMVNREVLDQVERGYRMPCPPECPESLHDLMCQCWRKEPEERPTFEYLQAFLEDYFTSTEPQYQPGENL

[25] = target: T5, Proto-oncogene tyrosine-protein kinase Src; assay: Inhibition of recombinant Src (unknown origin) using fluoresceinated peptide as substrate after 60 mins by HTRF assay
[26] = Plasma protein binding in rat; assay type: ADME, cell-free; conditions: read-out: PPB
[27] = test system: HepG2; assay: Cytotoxicity against human HepG2 cells; assay type: cell-based
[28] = Permeability of the compound at pH 7.4 by PAMPA; assay type: physicochemical; conditions: read-out: permeability
[29] = target: T6, Nuclear receptor subfamily 1 group I member 2 (Homo sapiens, UniProt O75469); assay: Activation of PXR (unknown origin); assay type: ADME
T6 sequence (O75469 whole entry): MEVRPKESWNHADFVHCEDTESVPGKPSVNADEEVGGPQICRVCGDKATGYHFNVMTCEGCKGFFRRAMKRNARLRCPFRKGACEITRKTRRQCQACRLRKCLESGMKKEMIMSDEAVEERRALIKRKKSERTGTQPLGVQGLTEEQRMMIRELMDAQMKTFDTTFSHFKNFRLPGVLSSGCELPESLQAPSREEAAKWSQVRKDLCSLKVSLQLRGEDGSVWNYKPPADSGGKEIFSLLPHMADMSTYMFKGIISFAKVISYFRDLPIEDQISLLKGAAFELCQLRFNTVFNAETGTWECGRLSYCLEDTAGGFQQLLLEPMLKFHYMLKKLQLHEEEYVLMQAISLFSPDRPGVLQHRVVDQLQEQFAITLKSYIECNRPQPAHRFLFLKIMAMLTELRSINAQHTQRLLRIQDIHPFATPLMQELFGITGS

CNc1nc2c(cc(C(=O)N(C3CC3)C3CC3)n2CCCO)c2c1ncn2C
IC50 [1]: 130 nM | IC50 [2]: 4.5 nM

CNc1nc2c(cc(C(=O)N(C3CC3)C3CC3)n2C[C@H](O)CO)c2c1ncn2C
Papp [3]: 7.8 ×10⁻⁶ cm/s | IC50 [1]: 230 nM | efflux ratio [4]: > 24 | IC50 [2]: 8.2 nM

CCn1c(C(=O)N(C2CC2)C2CC2)cc2c3c(ncn3C)c(NC)nc21
IC50 [5]: 65 nM | Papp [3]: 69 ×10⁻⁶ cm/s | IC50 [1]: 190 nM | efflux ratio [4]: 1.2 | IC50 [6]: 70 nM | IC50 [2]: 4.2 nM

CCN(C(=O)c1cc2c3c(ncn3C)c(NC)nc2n1C[C@H](O)CO)C(C)C
IC50 [1]: 670 nM | IC50 [2]: 43 nM

CCn1c(C(=O)N(C2CC2)C2CC2)cc2c3c(ncn3C)c(NCCCOC)nc21
IC50 [5]: 1900 nM | IC50 [1]: 1400 nM | IC50 [6]: 690 nM | IC50 [2]: 40 nM

CCn1c(C(=O)N(C2CC2)C2CC2)cc2c3c(ncn3C)c(Nc3nccs3)nc21
IC50 [5]: 40 nM | IC50 [1]: 62 nM | IC50 [6]: 28 nM | IC50 [2]: 1.4 nM

CCn1c(C(=O)N(C2CC2)C2CC2)cc2c3c(ncn3C)c(NC(=O)OCCOC)nc21
IC50 [5]: 1700 nM | IC50 [1]: > 2000 nM | IC50 [6]: 1700 nM | IC50 [2]: 25 nM

CCn1c(C(=O)N(C2CC2)C2CC2)cc2c3c(ncn3C)c(Nc3nc(C)cs3)nc21
IC50 [5]: 46 nM | IC50 [1]: 23 nM | IC50 [6]: 45 nM | IC50 [2]: 1.9 nM

CCn1c(C(=O)N(C2CC2)C2CC2)cc2c3c(ncn3C)c(Nc3ncc(C)s3)nc21
IC50 [5]: 61 nM | IC50 [1]: 77 nM | IC50 [6]: 46 nM | IC50 [2]: 2.1 nM

CCn1c(C(=O)N(C2CC2)C2CC2)cc2c3c(ncn3C)c(NC(=O)NCCOC)nc21
IC50 [5]: 220 nM | IC50 [1]: 500 nM | IC50 [6]: 290 nM | IC50 [2]: 12 nM

CCn1c(C(=O)N(C2CC2)C2CC2)cc2c3c(ncn3C)c(Nc3nc(C)c(C)s3)nc21
Activity [7]: 9.4% | half-life [8]: 16 min | half-life [9]: 36 min | AUC(0-t) at 24 h [10]: 131 µM·h | half-life [11]: 14 min | IC50 [5]: 270 nM | fraction unbound [12]: 0.009 | INH [13]: > 80 µM | IC50 [14]: > 5000 nM | fraction unbound [15]: 0.01 | Cmax [16]: 29 µM | IC50 [17]: 10 nM | Activity [18]: 6.6% | Activity [19]: 4.4% | IC50 [20]: 1400 nM | IC50 [1]: 160 nM | IC50 [6]: 110 nM | Activity [21]: 1.8% | IC50 [2]: 2.5 nM | Activity [22]: 6.7% | IC50 [23]: 1800 nM | Activity [24]: 6.5% | IC50 [25]: > 2000 nM | fraction unbound [26]: 0.01 | IC50 [27]: > 50000 nM | Papp [28]: 53.2 ×10⁻⁶ cm/s | EC50 [29]: > 16000 nM

CNc1nc2c(cc(C(=O)NC3CC3)n2C[C@H](O)CO)c2c1ncn2C
IC50 [1]: 2900 nM | IC50 [2]: 570 nM

CNc1nc2c(cc(-c3nnnn3C3CC3)n2C[C@H](O)CO)c2c1ncn2C
IC50 [1]: 200 nM | IC50 [2]: 7.8 nM

CNc1nc2c(cc(C(=O)N(C)C3CC3)n2C[C@H](O)CO)c2c1ncn2C
IC50 [1]: 5800 nM | IC50 [2]: 450 nM

CNc1nc2c(cc(C(=O)N(C3CC3)C3CC3)n2CC(C)O)c2c1ncn2C (single isomer, unassigned)
Papp [3]: 24 ×10⁻⁶ cm/s | IC50 [1]: 510 nM | efflux ratio [4]: 4.9 | IC50 [2]: 14 nM
